According to PubChem BioAssay AID2060883 (Molecular Pharmacology Branch, DTP, NCI, 2025):

System: 843782-103-R-J1-PDC complex spheroid viability
Assay: Anticancer human tumor 843782-103-R-J1-PDC patient-derived lung adenocarcinoma cell line growth inhibition [RAS]
Settings: for IC50: curve of first compound; for viability, T/C: stronger effect = lower value
Text: RAS pathway inhibitors in Combinations in Complex Spheroids
A high-throughput screen of multi-cell type tumor spheroids was designed to identify active combinations of RAS pathway inhibitors and targeted small molecules. Complex spheroids include a stromal component modeled by human endothelial cells (HUVEC) and fibroblasts modeled by human mesenchymal stem cells (MSCs). The concentration ranges selected for each drug and investigational agent were based upon clinically achievable concentrations if the clinical Cmax of the agent was known.
Compounds. The drugs and investigational agents: abemaciclib (NSC768073), cobimetinib (NSC768068), divarasib (GDC6063, NSC841802), docetaxel (NSC628503), GDC-1971 (RLY-1971, NSC841576), gemcitabine (NSC613327), inavolisib (NSC800729), ipatasertib (NSC767898), KB-0742 (NSC834161), MRTX-1133 (NSC836407), osimertinib (NSC779217), RMC-4630 (NSC839698), RMC-6236 (NSC851965), RMC-6291 (NSC852671), Ro-3306 (NSC812927), sapanisertib (NSC764658), SN-38 (NSC673596), staurosporine (NSC755774), SY5609 (NSC837396), and tovorafenib (DAY101, NSC766906), were obtained from the National Cancer Institute (NCI) Developmental Therapeutics Program Chemical Repository. The FDA-approved anticancer drug set is available from the NCI Developmental Therapeutics Program. […] The stock solutions were prepared in dimethyl sulfoxide (DMSO, Sigma-Aldrich, St. Louis, MO, cat. D2650) at 800-fold the tested concentration and stored at -70 degrees C prior to their use. All drugs and investigational agents were tested over a range starting from a high concentration at or near the clinical Cmax and decreasing in half-log increments. If the clinical Cmax for an agent had not been determined, the highest concentration tested was 10 microM.
Cell Culture. All cells were maintained in an incubator at 37 degrees C and 5% CO2 with 95% humidity. The PDC lines were cultured according to standard operating procedures established by the NCI PDMR. All PDCs were thawed and cultured in Matrigel-coated flasks prepared with a working solution of 1X Ham's F-12 nutrient mix, without supplementation (Invitrogen, Waltham, MA, cat. 11765054), 100 U/mL penicillin-streptomycin (Invitrogen, cat. 15140122), and 2.5% Matrigel (Corning Inc., Corning, NY, cat. 354248) for the first three passages. The 362531-283-R-J2-PDC and 782815-120-R-J1-PDC lines were cultured in 6C/Colon 1B media, which includes advanced DMEM/F-12 (Thermo Fisher Scientific, cat. 12634028), 10 mM HEPES (Thermo Fisher Scientific, cat. 15630080), 1X GlutaMAX supplement (Thermo Fisher Scientific, cat. 35050061), 0.1 mg/mL primocin (InvivoGen, San Diego, CA, cat. ant-pm-2), 10% defined fetal bovine serum, heat inactivated (HyClone Laboratories Inc., Logan, UT, cat. SH30070.03HI), 50% L-WRN conditioned media (ATCC, cat. CRL-3276), 1.25 mM N-Acetyl-L-cysteine (Sigma-Aldrich, cat. A9165), 10 mM nicotinamide (Sigma-Aldrich, cat. N0636), 1X B-27 supplement (Thermo Fisher Scientific, cat. 17504044), 1X N-2 supplement (Thermo Fisher Scientific, cat. 17502048), 50 ng/mL human EGF (Thermo Fisher Scientific, cat. PHG0311), and 10 microM Y-27632 dihydrochloride (Tocris Bioscience, cat. 1254). The K12877-001-R-J1-PDC line was cultured in 6I media, which includes all 6C/Colon 1B media plus 10 ng/mL human FGF-10 (PeproTech, cat. 100-26), 1 ng/mL human FGF-2 (PeproTech, cat. 100-18B), 1 µM prostaglandin E2 (Tocris Bioscience, cat. 2296), […] hydrocortisone (Sigma-Aldrich, cat. H4001), and […] bovine insulin (Sigma-Aldrich, cat. I6634). The K86415-001-R-J1-PDC line was cultured in 6D media, which includes all 6C/Colon 1B media components minus the L-WRN conditioned media. The 485176-168-R4-J1-PDC was cultured in PANC media, which includes all 6C/Colon 1B media plus 100 ng/mL human FGF-10 (PeproTech, cat. 100-26), 500 nM SB-431542 (Selleckchem, cat. S1067), and 10 nM gastrin (Tocris Bioscience, cat. 3006). […]
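Further: viability read after seven days of compound exposure.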

CCc1c2c(nc3ccc(O)cc13)-c1cc3c(c(=O)n1C2)COC(=O)[C@]3(O)CC + CCn1c(-c2cccnc2C(C)OC)c2c3cc(ccc31)N1CCOC(CC(NC(=O)C(C(C)C)N(C)C(=O)C3(F)CCN(C(=O)C#CC(C)(C)N(C)C)CC3)C(=O)N3CCCC(N3)C(=O)OCC(C)(C)C2)C1
IC50 (second compound 0.000949 µM): 1.49 nM | IC50 (second compound 0.003 µM): 1.45 nM | IC50 (second compound 0.00949 µM): 1.26 nM | IC50 (second compound 0.03 µM): 1.27 nM | IC50 (second compound 0.0949 µM): 1.46 nM | IC50 (second compound 0.3 µM): 1.23 nM | viability, T/C (second compound 0.000949 µM, first compound 0.000949 µM): 67.3% | viability, T/C (second compound 0.000949 µM, first compound 0.003 µM): 23.5% | viability, T/C (second compound 0.000949 µM, first compound 0.00949 µM): 6.26% | viability, T/C (second compound 0.000949 µM, first compound 0.03 µM): 2.82% | viability, T/C (second compound 0.000949 µM, first compound 0.0949 µM): 1.64% | viability, T/C (second compound 0.000949 µM, first compound 0.3 µM): 1.49% | viability, T/C (second compound 0.003 µM, first compound 0.000949 µM): 63.3% | viability, T/C (second compound 0.003 µM, first compound 0.003 µM): 27% | viability, T/C (second compound 0.003 µM, first compound 0.00949 µM): 5.6% | viability, T/C (second compound 0.003 µM, first compound 0.03 µM): 2.52% | viability, T/C (second compound 0.003 µM, first compound 0.0949 µM): 1.9% | viability, T/C (second compound 0.003 µM, first compound 0.3 µM): 1.58% | viability, T/C (second compound 0.00949 µM, first compound 0.000949 µM): 59.1% | viability, T/C (second compound 0.00949 µM, first compound 0.003 µM): 22.9% | viability, T/C (second compound 0.00949 µM, first compound 0.00949 µM): 6.03% | viability, T/C (second compound 0.00949 µM, first compound 0.03 µM): 2.26% | viability, T/C (second compound 0.00949 µM, first compound 0.0949 µM): 1.84% | viability, T/C (second compound 0.00949 µM, first compound 0.3 µM): 2.05% | viability, T/C (second compound 0.03 µM, first compound 0.000949 µM): 59.7% | viability, T/C (second compound 0.03 µM, first compound 0.003 µM): 21.9% | viability, T/C (second compound 0.03 µM, first compound 0.00949 µM): 3.99% | viability, T/C (second compound 0.03 µM, first compound 0.03 µM): 2.11% | viability, T/C (second compound 0.03 µM, first compound 0.0949 µM): 1.92% | viability, T/C (second compound 0.03 µM, first compound 0.3 µM): 1.55% | viability, T/C (second compound 0.0949 µM, first compound 0.000949 µM): 68.9% | viability, T/C (second compound 0.0949 µM, first compound 0.003 µM): 18.6% | viability, T/C (second compound 0.0949 µM, first compound 0.00949 µM): 3.32% | viability, T/C (second compound 0.0949 µM, first compound 0.03 µM): 1.45% | viability, T/C (second compound 0.0949 µM, first compound 0.0949 µM): 1.1% | viability, T/C (second compound 0.0949 µM, first compound 0.3 µM): 1.93% | viability, T/C (second compound 0.3 µM, first compound 0.000949 µM): 59.3% | viability, T/C (second compound 0.3 µM, first compound 0.003 µM): 17.8% | viability, T/C (second compound 0.3 µM, first compound 0.00949 µM): 3.68% | viability, T/C (second compound 0.3 µM, first compound 0.03 µM): 2.01% | viability, T/C (second compound 0.3 µM, first compound 0.0949 µM): 1.36% | viability, T/C (second compound 0.3 µM, first compound 0.3 µM): 1.25%

Nc1ccn(C2OC(CO)C(O)C2(F)F)c(=O)n1 (centres undefined) + CCn1c(-c2cc(N3CCN(C)CC3)cnc2C(C)OC)c2c3cc(ccc31)-c1csc(n1)CC(NC(=O)C1CC1C)C(=O)N1CCCC(N1)C(=O)OCC(C)(C)C2
IC50 (second compound 0.000949 µM): 17.9 nM | IC50 (second compound 0.003 µM): 11.5 nM | IC50 (second compound 0.00949 µM): < 3.16 nM | IC50 (second compound 0.03 µM): < 3.16 nM | IC50 (second compound 0.0949 µM): < 3.16 nM | IC50 (second compound 0.3 µM): < 3.16 nM | viability, T/C (second compound 0.000949 µM, first compound 0.00316 µM): 83.4% | viability, T/C (second compound 0.000949 µM, first compound 0.01 µM): 73.4% | viability, T/C (second compound 0.000949 µM, first compound 0.0316 µM): 27.1% | viability, T/C (second compound 0.000949 µM, first compound 0.1 µM): 3.62% | viability, T/C (second compound 0.000949 µM, first compound 0.316 µM): 1.6% | viability, T/C (second compound 0.000949 µM, first compound 1 µM): 2.63% | viability, T/C (second compound 0.003 µM, first compound 0.00316 µM): 64.4% | viability, T/C (second compound 0.003 µM, first compound 0.01 µM): 54% | viability, T/C (second compound 0.003 µM, first compound 0.0316 µM): 20.3% | viability, T/C (second compound 0.003 µM, first compound 0.1 µM): 3.76% | viability, T/C (second compound 0.003 µM, first compound 0.316 µM): 1.56% | viability, T/C (second compound 0.003 µM, first compound 1 µM): 1.61% | viability, T/C (second compound 0.00949 µM, first compound 0.00316 µM): 37.1% | viability, T/C (second compound 0.00949 µM, first compound 0.01 µM): 36.2% | viability, T/C (second compound 0.00949 µM, first compound 0.0316 µM): 16.3% | viability, T/C (second compound 0.00949 µM, first compound 0.1 µM): 5.56% | viability, T/C (second compound 0.00949 µM, first compound 0.316 µM): 2.02% | viability, T/C (second compound 0.00949 µM, first compound 1 µM): 1.82% | viability, T/C (second compound 0.03 µM, first compound 0.00316 µM): 19% | viability, T/C (second compound 0.03 µM, first compound 0.01 µM): 22.7% | viability, T/C (second compound 0.03 µM, first compound 0.0316 µM): 15.8% | viability, T/C (second compound 0.03 µM, first compound 0.1 µM): 7.32% | viability, T/C (second compound 0.03 µM, first compound 0.316 µM): 2.39% | viability, T/C (second compound 0.03 µM, first compound 1 µM): 1.81% | viability, T/C (second compound 0.0949 µM, first compound 0.00316 µM): 15.9% | viability, T/C (second compound 0.0949 µM, first compound 0.01 µM): 18.9% | viability, T/C (second compound 0.0949 µM, first compound 0.0316 µM): 13.9% | viability, T/C (second compound 0.0949 µM, first compound 0.1 µM): 11.8% | viability, T/C (second compound 0.0949 µM, first compound 0.316 µM): 4.42% | viability, T/C (second compound 0.0949 µM, first compound 1 µM): 2.61% | viability, T/C (second compound 0.3 µM, first compound 0.00316 µM): 14.3% | viability, T/C (second compound 0.3 µM, first compound 0.01 µM): 16.6% | viability, T/C (second compound 0.3 µM, first compound 0.0316 µM): 16.6% | viability, T/C (second compound 0.3 µM, first compound 0.1 µM): 12.6% | viability, T/C (second compound 0.3 µM, first compound 0.316 µM): 7.82% | viability, T/C (second compound 0.3 µM, first compound 1 µM): 3.72%
